According to PubChem BioAssay AID256 (DTP/NCI, 2004):
Toxic doses and inconclusive results are not listed. How the source made its calls: active means survival T/C of 150% or more; inactive means T/C below 125% in these data.

System: CD2F1 mice, L1210 leukemia ip, survival T/C
Experiment: NCI In Vivo Anticancer Drug Screen. Data for tumor model L1210 Leukemia (intraperitoneal) in CD2F1 (CDF1) mice
Details: endpoint: mean survival time, higher = longer survival
Description: The antitumor activity of compounds was measured in mice bearing transplantable tumors. Survival or tumor size were measured and the results are expressed as the measurement made in the treated group (T) divided by the measurement made in the vehicle treated control group (C). The tumor model used in this assay is L1210 Leukemia (intraperitoneal) in CD2F1 (CDF1) mice

[1] = dose: 50.0 mg/kg/injection, schedule: Q01DX009 (ip), vehicle: saline with Tween-80
[2] = dose: 100.0 mg/kg/injection, schedule: Q01DX009 (ip), vehicle: saline with Tween-80
[3] = dose: 200.0 mg/kg/injection, schedule: Q01DX009 (ip), vehicle: saline with Tween-80
[4] = dose: 400.0 mg/kg/injection, schedule: Q01DX009 (ip), vehicle: saline with Tween-80
[5] = dose: 200.0 mg/kg/injection, schedule: Q04DX003 (ip), vehicle: saline with Tween-80
[6] = dose: 400.0 mg/kg/injection, schedule: Q04DX003 (ip), vehicle: saline with Tween-80
[7] = dose: 100.0 mg/kg/injection, schedule: Q04DX003 (ip), vehicle: saline
[8] = dose: 200.0 mg/kg/injection, schedule: Q04DX003 (ip), vehicle: saline
[9] = dose: 400.0 mg/kg/injection, schedule: Q04DX003 (ip), vehicle: saline
[10] = dose: 50.0 mg/kg/injection, schedule: Q01DX001 (ip), vehicle: carboxymethylcellulose (CMC)
[11] = dose: 100.0 mg/kg/injection, schedule: Q01DX001 (ip), vehicle: carboxymethylcellulose (CMC)
[12] = dose: 200.0 mg/kg/injection, schedule: Q01DX001 (ip), vehicle: carboxymethylcellulose (CMC)
[13] = dose: 400.0 mg/kg/injection, schedule: Q01DX001 (ip), vehicle: carboxymethylcellulose (CMC)
[14] = dose: 100.0 mg/kg/injection, schedule: Q04DX003 (ip), vehicle: saline with Tween-80

Measured: T/C

CCOP(OCC)SSCn1nc2ccc3ccccc3n2c1=O
inactive: dose: 12.5 mg/kg/injection, schedule: Q01DX009 (ip), vehicle: Klucel (hydroxypropylcellulose) (HPC) 100 % of control | dose: 25.5 mg/kg/injection, schedule: Q01DX009 (ip), vehicle: Klucel (hydroxypropylcellulose) (HPC) 95 % of control | dose: 50.0 mg/kg/injection, schedule: Q01DX009 (ip), vehicle: Klucel (hydroxypropylcellulose) (HPC) 113 % of control

N\C([S-])=N/N=C\C(=N/N=C(\N)[S-])C(O)C(O)C(O)CO.[Rh+2] (stereo unspecified)
inactive: dose: 100.0 mg/kg/injection, schedule: Q01DX001 (ip), vehicle: saline 98 % of control | dose: 200.0 mg/kg/injection, schedule: Q01DX001 (ip), vehicle: saline 96 % of control | dose: 400.0 mg/kg/injection, schedule: Q01DX001 (ip), vehicle: saline 96 % of control

COc1cc(/C=N/NC(=O)CNC(=O)NCc2ccco2)ccc1O
inactive: [1] 92 % of control | [2] 92 % of control | [3] 92 % of control

N#C/C(=C\c1cc(Cl)ccc1O)C1CCC([N+](=O)[O-])CC1 (stereo unspecified)
inactive: [2] 86 % of control | [3] 93 % of control | [4] 91 % of control

N#C/C(=C\c1ccc(-c2ccccc2)cc1)c1ccc([N+](=O)[O-])cc1
inactive: [5] 86 % of control | [6] 94 % of control

COc1cc([C@@H]2c3cc4c(c(O)c3C[C@H]3COC(=O)[C@@H]32)OCO4)cc(OC)c1OC
inactive: dose: 10.0 mg/kg/injection, schedule: Q04DX003 (ip), vehicle: saline 100 % of control | dose: 20.0 mg/kg/injection, schedule: Q04DX003 (ip), vehicle: saline 108 % of control | dose: 40.0 mg/kg/injection, schedule: Q04DX003 (ip), vehicle: saline 105 % of control | dose: 80.0 mg/kg/injection, schedule: Q04DX003 (ip), vehicle: saline 121 % of control | dose: 125.0 micrograms/kg/injection, schedule: Q01DX009 (ip), vehicle: saline 100 % of control | dose: 250.0 micrograms/kg/injection, schedule: Q01DX009 (ip), vehicle: saline 108 % of control | dose: 500.0 micrograms/kg/injection, schedule: Q01DX009 (ip), vehicle: saline 110 % of control | dose: 2000.0 micrograms/kg/injection, schedule: Q01DX009 (ip), vehicle: saline 124 % of control | dose: 4000.0 micrograms/kg/injection, schedule: Q01DX009 (ip), vehicle: saline 114 % of control

OC1CCCC(O)C1O (stereo unspecified)
inactive: [7] 101 % of control | [8] 97 % of control | [9] 101 % of control

COC1(OC)C(Cl)=C(Cl)C(Cl)=C1Cl
inactive: dose: 6.25 mg/kg/injection, schedule: Q01DX009 (ip), vehicle: saline with Tween-80 96 % of control | dose: 12.5 mg/kg/injection, schedule: Q01DX009 (ip), vehicle: saline with Tween-80 98 % of control | dose: 12.5 mg/kg/injection, schedule: Q04DX003 (ip), vehicle: saline with Tween-80 111 % of control | dose: 25.0 mg/kg/injection, schedule: Q01DX009 (ip), vehicle: saline with Tween-80 96 % of control | dose: 25.0 mg/kg/injection, schedule: Q04DX003 (ip), vehicle: saline with Tween-80 111 % of control

CC1CCCCC1O (stereo unspecified)
inactive: [10] 97 % of control | [1] 103 % of control | [11] 108 % of control | [2] 103 % of control | [7] 103 % of control | [12] 92 % of control | [3] 95 % of control | [8] 103 % of control | [13] 100 % of control | [9] 95 % of control

Cc1ccc(C(=O)CC(O)(C(F)(F)F)C(F)(F)F)cc1
inactive: dose: 100.0 mg/kg/injection, schedule: Q01DX009 (ip), vehicle: other 106 % of control | dose: 400.0 mg/kg/injection, schedule: Q01DX009 (ip), vehicle: other 112 % of control

Clc1ccccc1N=Cc1ccc2c(c1)OCO2
inactive: dose: 100.0 mg/kg/injection, schedule: Q01DX009 (ip), vehicle: Klucel (hydroxypropylcellulose) (HPC) 105 % of control | dose: 100.0 mg/kg/injection, schedule: Q04DX003 (ip), vehicle: alcohol 103 % of control | dose: 200.0 mg/kg/injection, schedule: Q01DX009 (ip), vehicle: Klucel (hydroxypropylcellulose) (HPC) 100 % of control | dose: 200.0 mg/kg/injection, schedule: Q04DX003 (ip), vehicle: alcohol 109 % of control | dose: 400.0 mg/kg/injection, schedule: Q01DX009 (ip), vehicle: Klucel (hydroxypropylcellulose) (HPC) 100 % of control | dose: 400.0 mg/kg/injection, schedule: Q04DX003 (ip), vehicle: alcohol 105 % of control

O=c1[nH]c(-c2ccccc2)nc(-c2ccc(Cl)cc2)c1CCO
inactive: [2] 95 % of control | [3] 91 % of control | [5] 91 % of control | [4] 96 % of control | [6] 86 % of control

O=C(c1ccc(Cl)cc1)C1CC(Br)C(Br)CC1C(=O)c1ccc(Cl)cc1 (stereo unspecified)
inactive: [2] 96 % of control | [14] 101 % of control | [3] 98 % of control | [5] 98 % of control | [4] 100 % of control | [6] 98 % of control

CCCCC/C(C)=C(\C)c1cc(OC)cc(OC)c1
inactive: [2] 103 % of control | [3] 106 % of control | [4] 91 % of control

CCCCCCCCCCCCCCCC(CCCC)CCCCCC (stereo unspecified)
inactive: dose: 100.0 mg/kg/injection, schedule: Q01DX001 (ip), vehicle: saline sonified 108 % of control | dose: 200.0 mg/kg/injection, schedule: Q01DX001 (ip), vehicle: saline sonified 98 % of control | dose: 400.0 mg/kg/injection, schedule: Q01DX001 (ip), vehicle: saline sonified 104 % of control

O=C(c1ccccc1)C1(Br)CCC1
inactive: [14] 95 % of control | [5] 97 % of control | [6] 100 % of control

CCOC(=O)c1cnc(SCc2ccccc2)nc1N
inactive: [2] 92 % of control | [14] 100 % of control | [3] 94 % of control | [5] 100 % of control | [4] 96 % of control | [6] 97 % of control

Cc1ccc(S(=O)(=O)OC2C3OCC(O3)C3OC(C)OC32)cc1 (stereo unspecified)
inactive: [2] 92 % of control | [3] 95 % of control | [4] 95 % of control

c1ccc(CNc2ncnc3[nH]ncc23)cc1
inactive: dose: 1.12 mg/kg/injection, schedule: Q01DX Z (ip), vehicle: carboxymethylcellulose (CMC) 100 % of control | dose: 2.25 mg/kg/injection, schedule: Q01DX Z (ip), vehicle: carboxymethylcellulose (CMC) 103 % of control | dose: 4.5 mg/kg/injection, schedule: Q01DX Z (ip), vehicle: carboxymethylcellulose (CMC) 100 % of control | dose: 9.0 mg/kg/injection, schedule: Q01DX Z (ip), vehicle: carboxymethylcellulose (CMC) 102 % of control

O=P1(N(CCCl)CCCl)NCCC2(O1)C1CC3CC(C1)CC2C3 (stereo unspecified)
inactive: dose: 15.6 mg/kg/injection, schedule: Q01DX001 (ip), vehicle: distilled water + Tween-80 97 % of control | dose: 31.3 mg/kg/injection, schedule: Q01DX001 (ip), vehicle: distilled water + Tween-80 96 % of control | dose: 62.5 mg/kg/injection, schedule: Q01DX001 (ip), vehicle: distilled water + Tween-80 99 % of control | dose: 125.0 mg/kg/injection, schedule: Q01DX001 (ip), vehicle: distilled water + Tween-80 86 % of control | dose: 500.0 mg/kg/injection, schedule: Q01DX001 (ip), vehicle: distilled water + Tween-80 86 % of control

ON=C1c2cc(Br)ccc2-c2ccc(Br)cc21
inactive: [10] 104 % of control | [11] 102 % of control | [12] 98 % of control | [13] 102 % of control
